Results published in the supplement of paper PMC10307832.

Tests used:
Assay in all cases: relative viability (nuclei count vs DMSO), 5 days (fraction); higher = more cells survive
ChaGo-K-1 = system: ChaGo-K-1
Method in brief: (§1)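 Lung cancer cell lines were pin-tool dosed in 1536-well plates on the day after seeding, with either a lone drug or a fixed anchor-drug dose plus five library-drug doses (not always all listed) in √10 steps. Nuclei were counted on 4× images after 5 days. Relative viability is the ratio of treated-well to vehicle-well nuclei counts, with each value a median of duplicate plates.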

EKVX = system: EKVX
Method in brief: as §1

EMC-BAC-2 = system: EMC-BAC-2
Method in brief: as §1

EPLC-272H = system: EPLC-272H
Method in brief: as §1

HCC-78 = system: HCC-78
Method in brief: as §1

HCC-827 = system: HCC-827
Method in brief: as §1

LCLC-103H = system: LCLC-103H
Method in brief: as §1

LK-2 = system: LK-2
Method in brief: as §1

LU99A = system: LU99A
Method in brief: as §1

NCI-H1666 = system: NCI-H1666
Method in brief: as §1

NCI-H1975 = system: NCI-H1975
Method in brief: as §1

NCI-H2126 = system: NCI-H2126
Method in brief: as §1

NCI-H2342 = system: NCI-H2342
Method in brief: as §1

NCI-H23 = system: NCI-H23
Method in brief: as §1

NCI-H2405 = system: NCI-H2405
Method in brief: as §1

NCI-H322M = system: NCI-H322M
Method in brief: as §1

PC-14 = system: PC-14
Method in brief: as §1

RERF-LC-KJ = system: RERF-LC-KJ
Method in brief: as §1

SW 900 = system: SW 900
Method in brief: as §1

Compound: CC(=O)O[C@@]12CO[C@@H]1C[C@H](O)[C@@]1(C)C(=O)[C@H](O)C3=C(C)[C@@H](OC(=O)[C@H](O)[C@@H](NC(=O)OC(C)(C)C)c4ccccc4)C[C@@](O)([C@@H](OC(=O)c4ccccc4)[C@H]21)C3(C)C [Docetaxel] + NC(=O)Nc1cc(-c2cccc(F)c2)sc1C(=O)N[C@H]1CCCNC1 [AZD7762] (partner 0.2 µM)
- relative viability (ChaGo-K-1; first compound 0.0002 µM): 0.817
- relative viability (ChaGo-K-1; first compound 0.000632 µM): 0.792
- relative viability (ChaGo-K-1; first compound 0.002 µM): 0.578
- relative viability (ChaGo-K-1; first compound 0.006325 µM): 0.27
- relative viability (ChaGo-K-1; first compound 0.02 µM): 0.161
- relative viability (EKVX; first compound 0.0002 µM): 0.736
- relative viability (EKVX; first compound 0.000632 µM): 0.638
- relative viability (EKVX; first compound 0.002 µM): 0.407
- relative viability (EKVX; first compound 0.006325 µM): 0.249
- relative viability (EKVX; first compound 0.02 µM): 0.132
- relative viability (EMC-BAC-2; first compound 0.0002 µM): 1.03
- relative viability (EMC-BAC-2; first compound 0.000632 µM): 0.885
- relative viability (EMC-BAC-2; first compound 0.002 µM): 0.467
- relative viability (EMC-BAC-2; first compound 0.006325 µM): 0.334
- relative viability (EMC-BAC-2; first compound 0.02 µM): 0.369
- relative viability (EPLC-272H; first compound 0.000632 µM): 0.191
- relative viability (EPLC-272H; first compound 0.002 µM): 0.0912
- relative viability (EPLC-272H; first compound 0.006325 µM): 0.149
- relative viability (EPLC-272H; first compound 0.02 µM): 0.0556
- relative viability (HCC-78; first compound 0.0002 µM): 0.479
- relative viability (HCC-78; first compound 0.000632 µM): 0.545
- relative viability (HCC-78; first compound 0.002 µM): 0.318
- relative viability (HCC-78; first compound 0.006325 µM): 0.394
- relative viability (HCC-78; first compound 0.02 µM): 0.364
- relative viability (HCC-827; first compound 0.0002 µM): 0.154
- relative viability (HCC-827; first compound 0.000632 µM): 0.239
- relative viability (HCC-827; first compound 0.002 µM): 0.165
- relative viability (HCC-827; first compound 0.006325 µM): 0.165
- relative viability (HCC-827; first compound 0.02 µM): 0.142
- relative viability (LCLC-103H; first compound 0.0002 µM): 0.771
- relative viability (LCLC-103H; first compound 0.000632 µM): 0.826
- relative viability (LCLC-103H; first compound 0.002 µM): 0.654
- relative viability (LCLC-103H; first compound 0.006325 µM): 0.508
- relative viability (LCLC-103H; first compound 0.02 µM): 0.372
- relative viability (LK-2; first compound 0.0002 µM): 0.337
- relative viability (LK-2; first compound 0.000632 µM): 0.277
- relative viability (LK-2; first compound 0.002 µM): 0.113
- relative viability (LK-2; first compound 0.006325 µM): 0.112
- relative viability (LK-2; first compound 0.02 µM): 0.0712
- relative viability (LU99A; first compound 0.0002 µM): 0.328
- relative viability (LU99A; first compound 0.000632 µM): 0.253
- relative viability (LU99A; first compound 0.002 µM): 0.194
- relative viability (LU99A; first compound 0.006325 µM): 0.228
- relative viability (LU99A; first compound 0.02 µM): 0.104
- relative viability (NCI-H1666; first compound 0.0002 µM): 0.692
- relative viability (NCI-H1666; first compound 0.000632 µM): 0.695
- relative viability (NCI-H1666; first compound 0.002 µM): 0.521
- relative viability (NCI-H1666; first compound 0.006325 µM): 0.465
- relative viability (NCI-H1666; first compound 0.02 µM): 0.359
- relative viability (NCI-H1975; first compound 0.0002 µM): 0.721
- relative viability (NCI-H1975; first compound 0.000632 µM): 0.601
- relative viability (NCI-H1975; first compound 0.002 µM): 0.389
- relative viability (NCI-H1975; first compound 0.006325 µM): 0.24
- relative viability (NCI-H1975; first compound 0.02 µM): 0.169
- relative viability (NCI-H2126; first compound 0.0002 µM): 1.07
- relative viability (NCI-H2126; first compound 0.000632 µM): 1
- relative viability (NCI-H2126; first compound 0.002 µM): 0.571
- relative viability (NCI-H2126; first compound 0.006325 µM): 0.395
- relative viability (NCI-H2342; first compound 0.0002 µM): 0.46
- relative viability (NCI-H2342; first compound 0.000632 µM): 0.56
- relative viability (NCI-H2342; first compound 0.002 µM): 0.405
- relative viability (NCI-H2342; first compound 0.006325 µM): 0.41
- relative viability (NCI-H2342; first compound 0.02 µM): 0.363
- relative viability (NCI-H23; first compound 0.0002 µM): 0.241
- relative viability (NCI-H23; first compound 0.000632 µM): 0.246
- relative viability (NCI-H23; first compound 0.002 µM): 0.136
- relative viability (NCI-H23; first compound 0.006325 µM): 0.148
- relative viability (NCI-H23; first compound 0.02 µM): 0.103
- relative viability (NCI-H2405; first compound 0.0002 µM): 0.742
- relative viability (NCI-H2405; first compound 0.000632 µM): 0.582
- relative viability (NCI-H2405; first compound 0.002 µM): 0.46
- relative viability (NCI-H2405; first compound 0.006325 µM): 0.349
- relative viability (NCI-H2405; first compound 0.02 µM): 0.248
- relative viability (NCI-H322M; first compound 0.0002 µM): 0.611
- relative viability (NCI-H322M; first compound 0.000632 µM): 0.459
- relative viability (NCI-H322M; first compound 0.002 µM): 0.451
- relative viability (NCI-H322M; first compound 0.006325 µM): 0.509
- relative viability (NCI-H322M; first compound 0.02 µM): 0.39
- relative viability (PC-14; first compound 0.0002 µM): 0.322
- relative viability (PC-14; first compound 0.000632 µM): 0.337
- relative viability (PC-14; first compound 0.002 µM): 0.132
- relative viability (PC-14; first compound 0.006325 µM): 0.0705
- relative viability (PC-14; first compound 0.02 µM): 0.0363
- relative viability (RERF-LC-KJ; first compound 0.0002 µM): 0.5
- relative viability (RERF-LC-KJ; first compound 0.000632 µM): 1.01
- relative viability (RERF-LC-KJ; first compound 0.002 µM): 0.363
- relative viability (RERF-LC-KJ; first compound 0.006325 µM): 0.196
- relative viability (RERF-LC-KJ; first compound 0.02 µM): 0.128
- relative viability (SW 900; first compound 0.0002 µM): 0.452
- relative viability (SW 900; first compound 0.000632 µM): 0.234
- relative viability (SW 900; first compound 0.002 µM): 0.287
- relative viability (SW 900; first compound 0.006325 µM): 0.235
- relative viability (SW 900; first compound 0.02 µM): 0.161
